Data from patent US10030016B2 (Sunesis Pharmaceuticals, Inc., priority 2009, dated 2018).
Structures can show the parent of a compound that is named as a salt. Where two headings read alike, the source gives them in different places.

Assays:
[1] = test system: phospho-akt (Thr308) in PC-3 cells; assay: Inhibition of phospho-akt (Thr308) in PC-3 cells, MSD phospho-akt 308 ELISA kit; assay type: cell-based; conditions: Homo sapiens, 2 hours, no serum, read-out: EC50
Procedure, shortened: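 Phospho-Akt (Thr308) levels were measured by MSD ELISA after PC-3 cells received compound for 2 hours in serum-free medium. Controls: DMSO (high), 5 μM wortmannin (low).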

[2] = biological target: PDK1 (Homo sapiens (Human), UniProt O15530); assay: PDK1 kinase assay (coupled PDK1/AKT/FAM-crosstide assay, IMAP fluorescence polarization); assay type: biochemical
Sequence of PDK1 (O15530 51-359): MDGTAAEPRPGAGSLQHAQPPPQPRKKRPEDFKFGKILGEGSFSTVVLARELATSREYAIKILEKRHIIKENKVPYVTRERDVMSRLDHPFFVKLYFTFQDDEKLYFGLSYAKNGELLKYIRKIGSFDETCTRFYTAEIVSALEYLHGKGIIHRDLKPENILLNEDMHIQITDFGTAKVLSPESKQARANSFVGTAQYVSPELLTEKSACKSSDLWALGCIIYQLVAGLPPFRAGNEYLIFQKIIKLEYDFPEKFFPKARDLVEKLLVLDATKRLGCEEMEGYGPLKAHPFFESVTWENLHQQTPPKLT
Procedure, shortened: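 Inhibition is derived by 4-parameter fitting of ΔmP from an IMAP fluorescence polarization read of FAM-crosstide (100 nM) phosphorylation. The cascade ran 30 min at 25 °C with 40 μM ATP, using insect-cell GST-PDK1 51-359 (0.75 nM) driving 10 nM unphosphorylated AKT2 140-467-PIFtide fusion.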

[3] = inhibition of P308 Akt in PC-3 cells, MSD
[4] = inhibition of phospo-PDK1 in vitro
[5] = inhibition of P308 Akt in PC-3 cells using MSD
[6] = PC-3, 2 h, inhibition of P308 Akt in PC-3 cells, MSD

| SMILES | EC50 [1, 3] [µM] | IC50 [2, 4] [µM] | EC50 [1, 5] [µM] | IC50 ([2]; inhibition of PDK1 in vitro) [µM] | other results |
| --- | --- | --- | --- | --- | --- |
| Nc1n[nH]c2ncc(-c3ccc(CNc4ncc(C(F)(F)F)cc4C(=O)Nc4ccc(F)cc4)cc3)cc12 [Example 38, 2-[4-(3-Amino-1H-pyrazolo[3,4-b]pyridin-5-yl)-benzylamino]-N-(4-fluoro-phenyl)-5-trifluoromethyl-nicotinamide] | < 1 | < 0.1 |  |  |  |
| Nc1n[nH]c2ncc(-c3ccc(CNc4ncc(C(F)(F)F)cc4C(=O)NC4CC4)cc3)cc12 [Example 260, 2-(4-(3-amino-1H-pyrazolo[3,4-b]pyridin-5-yl)benzylamino)-N-cyclopropyl-5-(trifluoromethyl)nicotinamide] |  |  | 1 to 10 | 0.1 to 1 |  |
| CNC(=O)c1cnc(NCc2ccc(-c3ccc4ncnc(N)c4c3)s2)c(C(=O)NCc2ccc(F)c(F)c2)c1 [Example 7.24.3, 2-({[5-(4-aminoquinazolin-6-yl)thiophen-2-yl]methyl}amino)-N^3-(3,4-difluorobenzyl)-N^5-methylpyridine-3,5-dicarboxamide] | < 1 | < 0.1 |  |  |  |
| O=C(NCc1ccc(F)c(F)c1)c1cccnc1NCCOc1ccc2[nH]c(=O)[nH]c2c1 [Example 16.2, N-(3,4-difluorobenzyl)-2-(2-(2-oxo-2,3-dihydro-1H-benzo[d]imidazol-5-yloxy)-ethylamino)nicotinamide] | 1 to 10 | < 0.1 |  |  |  |
| C[C@H](NC(=O)c1cn(-c2ccccn2)nc1NCc1ccc(-c2ccc3ncnc(N)c3c2)s1)c1ccc(F)c(F)c1 [Ex. 11.3] | < 1 | < 0.1 |  |  |  |
| Nc1n[nH]c2ncc(-c3ccc(CNc4ncc(C(F)(F)F)cc4C(=O)N[C@@H](CO)c4ccc(F)cc4)cc3)cc12 [Example 308, (R)-2-(4-(3-amino-1H-pyrazolo [3,4-b]pyridin-5-yl)benzylamino)-N-(1-(4-fluorophenyl)-2-hydroxyethyl)-5-(trifluoromethyl)nicotinamide] |  |  | < 1 | < 0.1 |  |
| Cc1cccc(Cl)c1NC(=O)c1cc(C(F)(F)F)cnc1NCc1ccc(-c2cnc3[nH]nc(N)c3c2)cc1 [Example 438, 2-(4-(3-amino-1H-pyrazolo[3,4-b]pyridin-5-yl)benzylamino)-N-(2-chloro-6-methyl-phenyl)-5-(trifluoro-methyl)nicotinamide] |  |  |  | 1 to 5 | EC50 ([1]; PC-3, 2 h, inhibition of P308 Akt in PC-3 cells using MSD): > 10 µM |
| Cn1cnc2cnc3ccc(-c4ccc(CNc5ncc(C#N)nc5C(=O)NCc5ccc(F)cc5)s4)cc3c21 [Example 3.82, 6-cyano-N-(4-fluorobenzyl)-3-(((5-(1-methyl-1H-imidazo [4,5-c]quinolin-8-yl)thiophen-2-yl)methyl)amino)pyrazine-2-carboxamide (TFA salt)] | < 1 | < 0.1 |  |  |  |
| C[C@H](NC(=O)c1cccnc1NCc1ccc(-c2cc3c(N)ncnc3cn2)s1)c1ccc(F)c(F)c1 [Example 7.16, 2-({[5-(4-aminopyrido[3,4-d]pyrimidin-6-yl)thiophen-2-yl]methyl}amino)-N-[(1S)-1-(3,4-difluorophenyl)ethyl] pyridine-3-carboxamide] | 1 to 10 | 0.1 to 1 |  |  |  |
| C=C1c2ccnc(NCc3ccc(-c4ccc5ncnc(N)c5c4)s3)c2C(=O)N1Cc1ccc(F)c(F)c1 [Ex. 7.20] | 1 to 10 | 0.1 to 1 |  |  |  |
| Nc1ncnc2ccc(-c3ccc(CNc4ncc(NC(=O)Cc5ccccc5)cc4C(=O)NCc4ccc(F)c(F)c4)s3)cc12 [Example 8.5.4, 2-({[5-(4-aminoquinazolin-6-yl)thiophen-2-yl]methyl}amino)-N-(3,4-difluorobenzyl)-5-[(phenylacetyl)amino] pyridine-3-carboxamide] | 1 to 10 | 1 to 5 |  |  |  |
| C[C@H](NC(=O)c1cccnc1NCc1ccc(-c2cnc3[nH]c(=O)[nH]c3c2)cc1)c1ccc(F)cc1 [Example 359, (S)-N-(1-(4-fluorophenyl)ethyl)-2-(4-(2-oxo-2,3-dihydro-1H-imidazo[4,5-b]pyridin-6-yl)benzylamino) nicotinamide] |  |  | < 1 | < 0.1 |  |
| Nc1ncnc2ccc(-c3ccc(CNc4ncc(Br)cc4C(=O)NCc4ccc(F)c(F)c4)s3)cc12 [Ex. 8.9, 2-({[5-(4-aminoquinazolin-6-yl)thiophen-2-yl]methyl}amino)-N-(3,4-difluorobenzyl)-5-bromopyridine-3-carboxamide] | < 1 | < 0.1 |  |  |  |
| C[C@H](NC(=O)c1cc(C#N)cnc1NCc1ccc(-c2cnc(N)c(O[C@@H]3CCNC3)n2)cc1)c1ccc(F)cc1 [Example 160, 2-{4-[5-Amino-6-((R)-pyrrolidin-3-yloxy)-pyrazin-2-yl]-benzylamino}-5-cyano-N-[(S)-1-(4-fluoro-phenyl)-ethyl]-nicotinamide] |  |  | < 1 | < 0.1 |  |
| C[C@H](NC(=O)c1nc(C#N)cnc1NCc1ccc(-c2cnc(N)c(CCCO)n2)cc1)c1ccc(F)c(F)c1 [Example 95, 3-{4-[5-Amino-6-(3-hydroxy-propyl)-pyrazin-2-yl]-benzyl-amino}-6-cyano-pyrazine-2-carboxylic acid [(S)-1-(3,4-difluoro-phenyl)-ethyl]-amide] |  |  | < 1 | < 0.1 |  |
| Cc1n[nH]c2ncc(-c3ccc(CNc4ncc(C#N)nc4C(=O)N[C@@H](C)c4ccc(F)c(F)c4)cc3)cc12 [Example 410, (S)-6-cyano-N-(1-(3,4-difluorophenyl)ethyl)-3-(4-(3-methyl-1H-pyrazolo [3,4-b]pyridin-5-yl)benzylamino)pyrazine-2-carboxamide] |  |  | < 1 | < 0.1 |  |
| CNc1ncc2cc(O[C@H](C)CNc3ncc(C#N)cc3C(=O)N[C@@H](C)c3ccc(F)cc3)ccc2n1 [Example 251, 5-cyano-N-((S)-1-(4-fluorophenyl)ethyl)-2-((R)-2-(2-(methylamino)quinazolin-6-yloxy)propylamino)nicotinamide] |  |  | 1 to 10 | > 5 |  |
| O=C(NCc1ccc(F)cc1)c1cccnc1NCc1ccc(-c2cnc3[nH]c(=O)[nH]c3c2)cc1 [Example 360, N-(4-fluorobenzyl)-2-(4-(2-oxo-2,3-dihydro-1H-imidazo [4,5-b]pyridin-6-yl)benzyl-amino)nicotinamide] |  |  | < 1 | < 0.1 |  |
| Nc1ncnc2ccc(-c3ccc(CNc4ncccc4C(=O)NCc4ccc(Cl)cc4)s3)cc12 [Example 3.22, 2-({[5-(4-aminoquinazolin-6-yl)thiophen-2-yl]methyl}amino)-N-(4-chlorobenzyl)pyridine-3-carboxamide (TFA salt)] |  | 0.1 to 1 |  |  | EC50 [1, 6]: > 10 µM |
| CCNS(=O)(=O)c1cnc(NCc2ccc(-c3ccc4ncnc(N)c4c3)s2)c(C(=O)NC)c1 [Example 8.6.16, 2-(((5-(4-aminoquinazolin-6-yl)thiophen-2-yl)methyl)amino)-5-(N-ethylsulfamoyl)-N-methylnicotinamide] | > 10 | > 5 |  |  |  |
| CC(C)(O)Cn1cc(-c2ccc(CNc3ncc(C(F)(F)F)cc3C(=O)Nc3ccc(F)cc3)cc2)c2c(N)ncnc21 [Example 405, 2-(4-(4-amino-7-(2-hydroxy-2-methylpropyl)-7H-pyrrolo[2,3-d]pyrimidin-5-yl)benzylamino)-N-(4-fluorophenyl)-5-(trifluoromethyl)nicotinamide] |  |  | 1 to 10 | < 0.1 |  |
| C[C@H](NC(=O)c1cc(C#N)cnc1NCc1ccc(-c2c[nH]nc2N)cc1)c1ccc(F)cc1 [Example 142, (S)-2-(4-(3-amino-1H-pyrazol-4-yl)benzylamino)-5-cyano-N-(1-(4-fluorophenyl)ethyl) nicotinamide] |  |  | 1 to 10 | > 5 |  |
| Nc1n[nH]c2ncc(-c3ccc(CNc4ncc(C(F)(F)F)cc4C(=O)NC4CCCCC4)cc3)cc12 [Example 297, 2-(4-(3-amino-1H-pyrazolo [3,4-b]pyridin-5-yl)benzylamino)-N-cyclohexyl-5-(trifluoromethyl)nicotinamide] |  |  | < 1 | < 0.1 |  |
| C[C@H](NC(=O)c1cc(C#N)cnc1NCc1ccc(Oc2ccnc(N)c2)cc1)c1ccc(F)cc1 [Example 388] |  |  | > 10 | > 5 |  |
| CC(Nc1ncccc1C(=O)NCc1ccc(F)c(F)c1)c1ccc(-c2ccc3ncnc(N)c3c2)s1 (stereo not shown) [Ex. 7.2] |  | 0.1 to 1 |  |  | EC50 [1, 6]: 1 to 10 µM |
| Cc1n[nH]cc1/C=C1\C(=O)Nc2cc(/C=C/CNc3ncccc3C(=O)NCc3ccc(F)c(F)c3)ccc21 [Example 15.10, N-(3,4-Difluoro-benzyl)-2-((E)-3-{3-[1-(3-methyl-1H-pyrazol-4-yl)-meth-(Z)-ylidene]-2-oxo-2,3-dihydro-1H-indol-6-yl}-allylamino)-nicotinamide] | < 1 | < 0.1 |  |  |  |
| C[C@H](NC(=O)c1cccnc1NC/C=C/c1ccc2c(c1)NC(=O)/C2=C\c1cnc[nH]1)c1ccc(F)cc1 [Example 15.22, 2-((E)-3-((Z)-3-((1H-imidazol-5-yl)methylene)-2-oxoindolin-6-yl)allylamino)-N-((S)-1-(4-fluorophenyl)ethyl) nicotinamide] | < 1 | < 0.1 |  |  |  |
| C[C@H](NC(=O)c1cccnc1NCc1ccc(-c2ccc3nccnc3c2)s1)c1ccc(F)c(F)c1 [Example 4.31] | > 10 | > 5 |  |  |  |
| O=C(NCc1ccc(C(F)(F)F)cc1)c1cccnc1NCc1cccc(-c2c[nH]c3ncccc23)c1 [Example 1.7, 2-(3-(1H-pyrrolo[2,3-b]pyridin-3-yl)benzylamino)-N-(4-(trifluoromethyl)benzyl) nicotinamide] | > 10 | 1 to 5 |  |  |  |
